From PubChem BioAssay (NCI)
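Assay format: 96-well plates, 48-hour exposure. TGI denotes the concentration required for complete inhibition of growth.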

Each compound was assayed on OVCAR-8 ovarian (assay: DTP human tumour cell line panel, 48 h).

| SMILES | TGI |
| --- | --- |
| NC(=O)C(N)Cc1ccc(O)cn1 (configuration not stated) | > 100 µM |
| CC[N+](CC)(CCNCC(N)=O)CC(N)=O | > 10 µM |
| COc1ccc(N=C2SC(=N/N=c3\sc4ccccc4n3C)SC2=Nc2ccc(OC)cc2)cc1 | > 100 µM |
| S=C(c1c[nH]c2ccccc12)N1CCOCC1 | > 100 µM |
| COc1ccc(C2CC(=O)CC(c3ccc(OC)cc3)C23C(=O)NC(=O)NC3=O)cc1 (configuration not stated) | > 100 µM |
| COC(C)(C)C1=CCC(C)CC1 (configuration not stated) | > 100 µM |
| c1ccc2sc(C3(N4CCCC4)CCCCCC3)cc2c1 | 37 µM |

What follows are compounds tested on T-47D breast (assay: DTP human tumour cell line panel, 48 h).

| SMILES | TGI |
| --- | --- |
| S=C(NCc1ccccc1)c1nc[nH]c1C(=S)NCc1ccccc1 | 17.4 µM |
| Cc1cc2nc3c(C#N)c(-c4ccccc4)cc(Nc4ccc(Cl)cc4)n3c2cc1C | > 100 µM |
| CN(c1ccc(Cl)cc1)S(=O)(=O)c1ccc([N+](=O)[O-])cc1 | > 100 µM |
| O=S1(=O)OCCOS(=O)(=O)C1F | > 100 µM |
| CC(=O)n1nc(-c2ccccc2)n(/N=C/c2ccc([N+](=O)[O-])cc2)c1=O | > 100 µM |
| CCn1c(-c2cc(OC)cc(OC)c2)nc2c1C(=O)c1ccccc1C2=O | > 100 µM |
| COc1cc(-c2cc(=O)c3c(OC)c(OC)c(OC)c(OC)c3o2)c(OC)c(OC)c1OC | 51 µM |
| COc1cc(/C=C2\CCC(C)C3C2=NN(C(C)=O)C3c2cc(OC)c(OC)c(OC)c2)cc(OC)c1OC (configuration not stated) | 67.8 µM |
| Cc1cc(N(CCC#N)CCC#N)ccc1/C(N=Nc1ccc([N+](=O)[O-])cc1)=N\NC(=O)c1cc(Cl)ccc1C(=O)c1ccccc1 | 50.3 µM |
| CC(=O)NC1C(OCc2ccccc2)OC(CO)C(O)C1OC(C)C(=O)NC(C)C(=O)NC(CCC(=O)NCCCNc1c2ccccc2nc2cccc([N+](=O)[O-])c12)C(N)=O (configuration not stated) | > 100 µM |
| COc1ccc(N=C2SC(=N/N=c3\sc4ccccc4n3C)SC2=Nc2ccc(OC)cc2)cc1 | > 100 µM |
| Cc1ccc(/C=N/n2c(=O)[nH]c3ccccc3c2=O)cc1 | > 100 µM |

These compounds were tested on KM12 colon (assay: DTP human tumour cell line panel, 48 h).

| SMILES | TGI |
| --- | --- |
| CC1CC(N)=Nc2ccccc2N1 (configuration not stated) | > 100 µM |
| S=C(NCc1ccccc1)c1nc[nH]c1C(=S)NCc1ccccc1 | 20 µM |
| CC(C)(Cc1ccccc1)NC1=NCCO1 | > 100 µM |
| CN(c1ccc(Cl)cc1)S(=O)(=O)c1cccc([N+](=O)[O-])c1 | > 100 µM |
| O=C(c1ccc(O)cc1)C1c2c3c(cc(O)c2C(c2ccc(O)cc2)C1c1cc(O)cc(O)c1)OC(c1ccc(O)cc1)C3c1cc2c(cc1O)OC(c1ccc(O)cc1)C2c1cc(O)cc(O)c1 (configuration not stated) | > 12.5 µM |
| Cc1cc2nc3c(C#N)c(-c4ccccc4)cc(Nc4ccc(Cl)cc4)n3c2cc1C | > 100 µM |
| CN(c1ccc(Cl)cc1)S(=O)(=O)c1ccc([N+](=O)[O-])cc1 | > 100 µM |
| O=C1OC[C@@H]2Cc3cc4c(cc3[C@H](c3ccc5c(c3)OCO5)[C@@H]12)OCO4 | > 25 µM |
| O=S1(=O)OCCOS(=O)(=O)C1F | > 100 µM |
| CC(=O)n1nc(-c2ccccc2)n(/N=C/c2ccc([N+](=O)[O-])cc2)c1=O | > 100 µM |
| COc1cc(C[S+]2CCCC2)c(SC)cc1C[S+]1CCCC1 | > 100 µM |
| CCn1c(-c2cc(OC)cc(OC)c2)nc2c1C(=O)c1ccccc1C2=O | > 100 µM |
| COc1cc(-c2cc(=O)c3c(OC)c(OC)c(OC)c(OC)c3o2)c(OC)c(OC)c1OC | 90.3 µM |
| C[C@]12C=CC(=O)C=C1CC[C@H]1[C@@H]3C[C@@H](O)[C@](O)(C(=O)CO)[C@@]3(C)C[C@H](O)[C@@]12F | > 100 µM |
| O=S(=O)(c1ccccc1)n1c2cc3cccnc3nc2c2cccnc21 | > 100 µM |
| COc1cc(/C=C2\CCC(C)C3C2=NN(C(C)=O)C3c2cc(OC)c(OC)c(OC)c2)cc(OC)c1OC (configuration not stated) | > 100 µM |
| Cc1cc(N(CCC#N)CCC#N)ccc1/C(N=Nc1ccc([N+](=O)[O-])cc1)=N\NC(=O)c1cc(Cl)ccc1C(=O)c1ccccc1 | 47.8 µM |
| CC(=O)NC1C(OCc2ccccc2)OC(CO)C(O)C1OC(C)C(=O)NC(C)C(=O)NC(CCC(=O)NCCCNc1c2ccccc2nc2cccc([N+](=O)[O-])c12)C(N)=O (configuration not stated) | 23.5 µM |
| NC(=O)C(N)Cc1ccc(O)cn1 (configuration not stated) | > 100 µM |
| CC[N+](CC)(CCNCC(N)=O)CC(N)=O | > 10 µM |
| COc1ccc(N=C2SC(=N/N=c3\sc4ccccc4n3C)SC2=Nc2ccc(OC)cc2)cc1 | > 100 µM |
| Cc1ccc(/C=N/n2c(=O)[nH]c3ccccc3c2=O)cc1 | > 100 µM |
| S=C(c1c[nH]c2ccccc12)N1CCOCC1 | > 100 µM |
| COc1ccc(C2CC(=O)CC(c3ccc(OC)cc3)C23C(=O)NC(=O)NC3=O)cc1 (configuration not stated) | 72.9 µM |
| COC(C)(C)C1=CCC(C)CC1 (configuration not stated) | > 100 µM |
| c1ccc2sc(C3(N4CCCC4)CCCCCC3)cc2c1 | 26.3 µM |

What follows are compounds tested on DU-145 prostate (assay: DTP human tumour cell line panel, 48 h).

| SMILES | TGI |
| --- | --- |
| CC1CC(N)=Nc2ccccc2N1 (configuration not stated) | > 100 µM |
| S=C(NCc1ccccc1)c1nc[nH]c1C(=S)NCc1ccccc1 | 21.6 µM |
| CC(C)(Cc1ccccc1)NC1=NCCO1 | > 100 µM |
| CN(c1ccc(Cl)cc1)S(=O)(=O)c1cccc([N+](=O)[O-])c1 | > 100 µM |
| CN(c1ccc(Cl)cc1)S(=O)(=O)c1ccc([N+](=O)[O-])cc1 | > 100 µM |
| O=C1OC[C@@H]2Cc3cc4c(cc3[C@H](c3ccc5c(c3)OCO5)[C@@H]12)OCO4 | > 25 µM |
| O=S1(=O)OCCOS(=O)(=O)C1F | > 100 µM |
| CC(=O)n1nc(-c2ccccc2)n(/N=C/c2ccc([N+](=O)[O-])cc2)c1=O | > 100 µM |
| CCn1c(-c2cc(OC)cc(OC)c2)nc2c1C(=O)c1ccccc1C2=O | > 100 µM |
| COc1cc(-c2cc(=O)c3c(OC)c(OC)c(OC)c(OC)c3o2)c(OC)c(OC)c1OC | > 100 µM |
| COc1cc(/C=C2\CCC(C)C3C2=NN(C(C)=O)C3c2cc(OC)c(OC)c(OC)c2)cc(OC)c1OC (configuration not stated) | > 100 µM |
| Cc1cc(N(CCC#N)CCC#N)ccc1/C(N=Nc1ccc([N+](=O)[O-])cc1)=N\NC(=O)c1cc(Cl)ccc1C(=O)c1ccccc1 | 56.8 µM |
